“Also recorded” adds a separate entry of the source. Like-named read-outs stand apart in the source and are kept apart here.
Columns and labels:
cannabinoid-CB1 receptor = molecular target: T1, cannabinoid-CB1 receptor (Rattus norvegicus, UniProt P20272); experiment: In vivo CB1 receptor antagonism, CP-55,940-induced hypotension test; conditions: for ED50: po, CP-55,940 (0.1 mg/kg i.v.) induced hypotension, read-out: CB-agonist induced blood pressure rat ID50; for activity in the in vivo CB1 mediated (CP-55,940-induced) hypotension test, in words: oral administration
T1 construct: Male normotensive rats (225-300 g; Harlan, Horst, The Netherlands) were anaesthetized; from tissue; host or cells: whole animal: male normotensive rats (Harlan)
Procedure: In vivo cannabinoid-CB1 receptor antagonism was assessed with the CP-55,940-induced hypotension test in rat. Male normotensive rats (225-300 g; Harlan, Horst, The Netherlands) were anaesthetized with pentobarbital (80 mg/kg ip). Blood pressure was measured, via a cannula inserted into the left carotid artery, by means of a Spectramed DTX-plus pressure transducer (Spectramed B. V., Bilthoven, The Netherlands). After amplification by a Nihon Kohden Carrier Amplifier (Type AP-621G; Nihon Kohden B. V., Amsterdam, The Netherlands), the blood pressure signal was registered on a personal computer (Compaq Deskpro 386s), by means of a Po-Ne-Mah data-acquisition program (Po-Ne-Mah Inc., Storrs, USA). Heart rate was derived from the pulsatile pressure signal. All compounds were administered orally as a microsuspension in 1% methylcellulose, 30 minutes before induction of the anesthesia, 60 minutes prior to administration of the CB1 receptor agonist CP-55,940. The injection volume was 10 ml/kg. After haemodynamic stabilization the CB1 receptor agonist CP-55,940 (0.1 mg/kg i. v.) was administered and the hypotensive effect established (Wagner, 2001).

[1] = molecular target: human cannabinoid CB1 receptor (Homo sapiens, UniProt P21554); experiment: In vitro affinity for cannabinoid-CB1 receptors, displacement of [3H]CP-55,940; assay type: binding
Procedure: In vitro affinity for cannabinoid-CB1 receptors was determined using membrane preparations of Chinese hamster ovary (CHO) cells wherein the human cannabinoid CB1 receptor was stably transfected in conjunction with [^3H]CP-55,940 as radioligand. After incubation of a freshly prepared cell membrane preparation with the [^3H]-ligand, with or without addition of compounds of the invention, separation of bound and free ligand was performed by filtration over glassfiber filters. Radioactivity on the filter was measured by liquid scintillation counting. The binding data were either obtained by CEREP (128, rue Danton, 92500 Rueil-Malmaison, France) or at Solvay Pharmaceuticals B.V. (C. J. van Houtenlaan 36, 1381 C P Weesp, The Netherlands).

human CB1 receptors = human CB1 receptors (Homo sapiens, UniProt P21554); experiment: In vitro CB1 receptor antagonism, inhibition of WIN 55,212-2-induced [3H]-arachidonic acid release in CHO cells; assay type: cell-based; conditions: for Kb: read-out: functional activity inhibition AA release [3H]-Arachidonic acid pA2 (converted)
Procedure: In vitro cannabinoid-[…] receptor antagonism was assessed with human CB1 receptors cloned in Chinese hamster ovary (CHO) cells. CHO cells were grown in a Dulbecco's Modified Eagle's medium (DMEM) culture medium, supplemented with 10% heat-inactivated fetal calf serum. Medium was aspirated and replaced by DMEM, without fetal calf serum, but containing [^3H]-arachidonic acid and incubated overnight in a cell culture stove (5% CO2/95% air; 37° C.; water-saturated atmosphere). During this period [^3H]-arachidonic acid was incorporated in membrane phospholipids. On the test day, medium was aspirated and cells were washed three times using 0.5 mL DMEM, containing 0.2% bovine serum albumin (BSA). Stimulation of the CB1 receptor by WIN 55,212-2 lead to activation of PLA2 followed by release of [^3H]-arachidonic acid into the medium. This WIN 55,212-2-induced release was concentration-dependently antagonized by CB1 receptor antagonists.

[2] = (5R) versus (5S)-enantiomer (compound 2)
[3] = h-CB1 receptor, CHO cell membranes, read-out: receptor binding displacement [3H]-CP-55,940 pKi (converted)
[4] = h-CB1 receptor in CHO cells, WIN 55,212-2-induced release

Chain of human cannabinoid CB1 receptor (P21554 whole entry): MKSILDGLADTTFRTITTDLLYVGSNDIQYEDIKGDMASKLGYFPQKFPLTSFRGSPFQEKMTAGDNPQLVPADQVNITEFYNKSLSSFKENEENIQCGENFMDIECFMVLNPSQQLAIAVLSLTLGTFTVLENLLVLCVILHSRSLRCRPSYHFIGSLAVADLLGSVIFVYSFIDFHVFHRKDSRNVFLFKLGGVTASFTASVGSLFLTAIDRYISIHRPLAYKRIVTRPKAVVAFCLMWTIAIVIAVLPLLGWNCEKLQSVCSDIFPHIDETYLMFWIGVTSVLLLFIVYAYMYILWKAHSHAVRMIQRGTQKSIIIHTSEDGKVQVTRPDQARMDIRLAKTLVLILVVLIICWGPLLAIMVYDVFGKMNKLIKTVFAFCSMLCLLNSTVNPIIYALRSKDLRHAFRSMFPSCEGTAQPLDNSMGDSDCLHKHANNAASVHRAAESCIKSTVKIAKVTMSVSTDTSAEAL
Chain of human CB1 receptors (P21554 whole entry): as above
T1 sequence (P20272 whole entry): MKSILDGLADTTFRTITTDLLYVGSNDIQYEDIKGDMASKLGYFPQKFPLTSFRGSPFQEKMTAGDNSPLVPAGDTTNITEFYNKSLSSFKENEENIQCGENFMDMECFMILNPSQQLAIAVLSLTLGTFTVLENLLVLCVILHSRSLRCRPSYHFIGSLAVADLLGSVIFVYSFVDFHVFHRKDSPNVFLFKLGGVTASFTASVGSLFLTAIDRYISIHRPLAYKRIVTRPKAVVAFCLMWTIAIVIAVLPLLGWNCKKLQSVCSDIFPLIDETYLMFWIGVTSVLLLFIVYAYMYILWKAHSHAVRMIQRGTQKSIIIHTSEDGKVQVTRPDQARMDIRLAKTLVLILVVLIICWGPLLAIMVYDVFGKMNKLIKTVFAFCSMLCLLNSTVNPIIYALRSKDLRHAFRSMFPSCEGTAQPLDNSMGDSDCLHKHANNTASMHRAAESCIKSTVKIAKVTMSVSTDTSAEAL

CN/C(=N\S(=O)(=O)N1CCCCC1)C1=NN(c2ccc(Cl)cc2)C(c2ccccc2)C1 (racemic) [N-[(piperidin-1-yl)-sulfonyl]-N′-methyl-1-(4-chlorophenyl)-5-phenyl-4,5-dihydro-(1H)-pyrazole-3-carboxamidine, reference compound]
ED50 (cannabinoid-CB1 receptor): > 30 mg/kg

CN/C(=N\S(=O)(=O)N1CCC(F)(F)CC1)C1=NN(c2ccc(Cl)cc2)[C@@H](c2ccccc2)C1 (single isomer, unassigned) [Compound 1]
affinity for human CB1 receptors relative to the (5S)-enantiomer [1, 2]: 25 fold | Ki [1, 3]: 0.01 µM | antagonist potency (pA2) relative to the (5S)-enantiomer (human CB1 receptors; [2]): 40 times | Kb (human CB1 receptors; [4]): 0.00158 µM | activity in the in vivo CB1 mediated (CP-55,940-induced) hypotension test, in words (cannabinoid-CB1 receptor): active; also recorded: potent activities | ED50 (cannabinoid-CB1 receptor): 6 mg/kg

CN/C(=N\S(=O)(=O)N1CCC(F)(F)CC1)C1=NN(c2ccc(Cl)cc2)[C@H](c2ccccc2)C1 (single isomer, unassigned) [Compound 2]
Ki [1, 3]: 0.251 µM | Kb (human CB1 receptors; [4]): 0.0794 µM | activity in the in vivo CB1 mediated (CP-55,940-induced) hypotension test, in words (cannabinoid-CB1 receptor): inactive | ED50 (cannabinoid-CB1 receptor): > 30 mg/kg

CN=C(NS(=O)(=O)N1CCC(F)(F)CC1)C1=NN(c2ccc(Cl)cc2)C(c2ccccc2)C1 (racemic) [racemate (1 + 2), N-[(4,4-difluoropiperidin-1-yl)sulfonyl]-N′-methyl-1-(4-chlorophenyl)-5-phenyl-4,5-dihydro-(1H)-pyrazole-3-carboxamidine]
Ki [1, 3]: 0.0251 µM | activity in the in vivo CB1 mediated (CP-55,940-induced) hypotension test, in words (cannabinoid-CB1 receptor): potent activities | ED50 (cannabinoid-CB1 receptor): 9 mg/kg

CN/C(=N\S(=O)(=O)N1CCC(F)CC1)C1=NN(c2ccc(Cl)cc2)[C@@H](c2ccccc2)C1 [Compound 3, 5R-(+)-N-[(4-fluoropiperidin-1-yl)sulfonyl]-N′-methyl-1-(4-chlorophenyl)-5-phenyl-4,5-dihydro-(1H)-pyrazole-3-carboxamidine]
Ki [1, 3]: 0.0158 µM

CN/C(=N\S(=O)(=O)N1CCCCC1)C1=NN(c2ccc(Cl)cc2)C(c2ccccc2)C1 (stereo not shown) [EP 1 713 475 Compound 10, reference compound]
ED50 (cannabinoid-CB1 receptor): > 30 mg/kg

CN=C(NS(=O)(=O)N1CCC(F)(F)CC1)C1=NN(c2ccc(Cl)cc2)C(c2ccccc2F)C1 (racemic) [racemate 2, N-[(4,4-difluoropiperidin-1-yl)sulfonyl]-N′-methyl-1-(4-chlorophenyl)-5-(2-fluorophenyl)-4,5-dihydro-(1H)-pyrazole-3-carboxamidine]
melting point: 166 to 167 °C

CN/C(=N\S(=O)(=O)N1CCC(C(F)(F)F)CC1)C1=NN(c2ccc(Cl)cc2)[C@@H](c2ccccc2)C1 [Compound 4, 5R-(+)-N-[(4-(trifluoromethyl)piperidin-1-yl)sulfonyl]-N′-methyl-1-(4-chlorophenyl)-5-phenyl-4,5-dihydro-(1H)-pyrazole-3-carboxamidine]
Ki [1]: 0.00316 µM | functional activity inhibition AA release [3H]-Arachidonic acid pA2 (human CB1 receptors; [4]): 9.5

Source: US20110053983A1, “(5R)-1,5-DIARYL-4,5-DIHYDRO-1H-PYRAZOLE-3-CARBOXAMIDINE DERIVATIVES HAVING CB1-ANTAGONISTIC ACTIVITY” (priority 2008, published 2011)
